pIC50: −log10 of the molar value.
How the values were obtained:
[1] = biological target: T1, Recombinant STAT3 protein (STAT3(G127-I722)) (Homo sapiens, UniProt P40763); assay: STAT3 Fluorescence Polarization (FP) Assay; type: binding; settings: STAT3(G127-I722) 25 nM, probe 5-FAM-GpYLPQTV-NH2 2 nM, 45-minute incubation
T1 construct: Recombinant STAT3 protein (STAT3(G127-I722))
Experimental: STAT3 Fluorescence Polarization (FP) Assay
An FP assay was developed to determine IC50 values for test substances. Recombinant STAT3 protein (STAT3(G127-I722)) at 25 nM was combined with a fluorescently labeled, phosphotyrosine peptide probe (5-FAM-GpYLPQTV-NH2) at 2 nM in FP buffer (10 mM HEPES pH 7.4, 50 mM NaCl, 1 mM EDTA, 0.05% Tween 20.2 mM DTT). 50 μL of STAT3-probe mixture was added to serial diluted compounds in black, 96-well plates (Greiner BioOne 655076) to a final concentration of 1% DMSO. Reaction components were mixed, and FP was measured after 45-minute incubation at room temperature using a Tecan Spark multimode plate reader. FP signal (mP) was plotted against the log concentration of the test substances and IC50 values were calculated by nonlinear regression analysis using GraphPad Prism software. For STAT3 FP assay, A=≤100 nM; B=>100-1000 nM; C=>1-10 μM; and D=>10 μM.

[2] = biological target: T2, Recombinant STAT6 protein (STAT6(W123-T658)) (Homo sapiens, UniProt P42226); assay: STAT6 Fluorescence Polarization (FP) Assay; type: binding; settings: STAT6(W123-T658) 250 nM, probe 5-FAM-ApYKPFQDLI-NH2 2 nM, 45-minute incubation
T2 construct: Recombinant STAT6 protein (STAT6(W123-T658))
T2 sequence (P42226 123-658): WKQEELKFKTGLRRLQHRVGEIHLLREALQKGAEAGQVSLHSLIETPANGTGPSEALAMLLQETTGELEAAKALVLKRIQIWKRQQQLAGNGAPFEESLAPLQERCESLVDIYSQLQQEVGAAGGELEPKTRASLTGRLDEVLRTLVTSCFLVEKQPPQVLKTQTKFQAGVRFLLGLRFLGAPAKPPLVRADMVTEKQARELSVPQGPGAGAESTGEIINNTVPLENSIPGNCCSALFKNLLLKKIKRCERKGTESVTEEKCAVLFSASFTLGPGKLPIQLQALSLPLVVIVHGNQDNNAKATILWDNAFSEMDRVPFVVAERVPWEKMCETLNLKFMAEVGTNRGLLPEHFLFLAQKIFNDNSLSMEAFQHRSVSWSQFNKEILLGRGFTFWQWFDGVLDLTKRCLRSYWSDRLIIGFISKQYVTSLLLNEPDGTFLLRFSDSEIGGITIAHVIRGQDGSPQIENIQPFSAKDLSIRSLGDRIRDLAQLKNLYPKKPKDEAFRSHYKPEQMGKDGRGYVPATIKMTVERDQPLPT
Experimental: STAT6 Fluorescence Polarization (FP) Assay
An FP assay was developed to determine IC50 values for test substances. Recombinant STAT6 protein (STAT6(W123-T658)) at 250 nM was combined with a fluorescently labeled, phosphotyrosine peptide probe (5-FAM-ApYKPFQDLI-NH2) at 2 nM in FP buffer (10 mM HEPES pH 7.4, 50 mM NaCl, 1 mM EDTA, 0.05% Tween 20.2 mM DTT). 50 μL of STAT6-probe mixture was added to serial diluted compounds in black, 96-well plates (Greiner BioOne 655076) to a final concentration of 1% DMSO. Reaction components were mixed, and FP was measured after 45-minute incubation at room temperature using a Tecan Spark multimode plate reader. FP signal (mP) was plotted against the log concentration of the test substances and IC50 values were calculated by nonlinear regression analysis using GraphPad Prism software. For STAT6 FP assay, A=≤300 nM; B=>300-3000 nM; C=>3-30 μM; and D=>30 μM.

T1 sequence (P40763 127-722): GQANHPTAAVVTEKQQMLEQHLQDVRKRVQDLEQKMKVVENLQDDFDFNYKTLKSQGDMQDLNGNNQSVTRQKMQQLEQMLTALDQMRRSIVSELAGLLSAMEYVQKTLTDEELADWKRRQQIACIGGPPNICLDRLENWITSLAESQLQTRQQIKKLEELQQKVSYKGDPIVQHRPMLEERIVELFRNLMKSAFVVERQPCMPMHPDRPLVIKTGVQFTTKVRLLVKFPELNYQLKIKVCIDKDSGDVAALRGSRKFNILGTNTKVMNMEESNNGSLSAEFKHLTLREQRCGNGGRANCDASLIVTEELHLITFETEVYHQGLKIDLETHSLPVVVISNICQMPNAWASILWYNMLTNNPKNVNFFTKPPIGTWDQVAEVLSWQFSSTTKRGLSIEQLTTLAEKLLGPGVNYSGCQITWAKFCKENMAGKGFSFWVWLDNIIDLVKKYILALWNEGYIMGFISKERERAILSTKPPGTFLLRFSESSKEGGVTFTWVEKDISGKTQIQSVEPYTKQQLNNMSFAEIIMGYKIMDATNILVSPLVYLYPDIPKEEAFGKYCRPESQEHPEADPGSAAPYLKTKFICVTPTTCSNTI

CC(=O)N1CC[C@H]2CC[C@@H](C(=O)Nc3ccc(=O)n(C)c3)N2C(=O)[C@@H](NC(=O)c2cc3cc(C(F)(F)P(=O)(O)O)ccc3s2)C1 [Compound 71, ((2-(((5S,8S,10aR)-3-acetyl-8-((1-methyl-6-oxo-1,6-dihydropyridin-3-yl)carbamoyl)-6-oxodecahydropyrrolo[1,2-a][1,5]diazocin-5-yl)carbamoyl)benzo[b]thiophen-5-yl)difluoromethyl)phosphonic acid]
pIC50 [1]: 5.00 to 6.00 | pIC50 [2]: 5.52 to 6.52

CC(=O)N1CC[C@H]2CC[C@@H](C(=O)Nc3ccc(-c4ccccc4)cc3)N2C(=O)[C@@H](NC(=O)c2cc3cc(C(F)(F)P(=O)(O)O)ccc3[nH]2)C1 [Compound 58, ((2-(((5S,8S,10aR)-8-([1,1′-biphenyl]-4-ylcarbamoyl)-3-acetyl-6-oxodecahydropyrrolo[1,2-a][1,5]diazocin-5-yl)carbamoyl)-1H-indol-5-yl)difluoromethyl)phosphonic acid]
pIC50 [1]: 6.00 to 7.00 | pIC50 [2]: 5.52 to 6.52

CC(=O)N1CC[C@H]2CC[C@@H](C(=O)N3Cc4cnn(-c5ccccc5)c4C3)N2C(=O)[C@@H](NC(=O)c2cc3cc(C(F)(F)P(=O)(O)O)ccc3s2)C1 [Compound 86, ((2-(((5S,8S,10aR)-3-acetyl-6-oxo-8-(1-phenyl-1,4,5,6-tetrahydropyrrolo[3,4-c]pyrazole-5-carbonyl)decahydropyrrolo[1,2-a][1,5]diazocin-5-yl)carbamoyl)benzo[b]thiophen-5-yl)difluoromethyl)phosphonic acid]
pIC50 [1]: ≥ 7.00 | pIC50 [2]: 5.52 to 6.52

CC(=O)N1CC[C@H]2CC[C@@H](C(=O)N3CCOc4cc(-c5ccccc5)ccc43)N2C(=O)[C@@H](NC(=O)c2cc3cc(C(F)(F)P(=O)(O)O)ccc3s2)C1 [Compound 197, ((2-(((5S,8S,10aR)-3-acetyl-6-oxo-8-(7-phenyl-3,4-dihydro-2H-benzo[b][1,4]oxazine-4-carbonyl)decahydropyrrolo[1,2-a][1,5]diazocin-5-yl)carbamoyl)benzo[b]thiophen-5-yl)difluoromethyl)phosphonic acid]
pIC50 [1]: 6.00 to 7.00 | pIC50 [2]: 5.52 to 6.52

CC(=O)N1CC[C@H]2CC[C@@H](C(=O)N3CCC(N4CCCS4(=O)=O)C3)N2C(=O)[C@@H](NC(=O)c2cc3cc(C(F)(F)P(=O)(O)O)ccc3s2)C1 (stereo partly drawn) [Compound 78, ((2-(((5S,8S,10aR)-3-acetyl-8-(3-(1,1-dioxidoisothiazolidin-2-yl)pyrrolidine-1-carbonyl)-6-oxodecahydropyrrolo[1,2-a][1,5]diazocin-5-yl)carbamoyl)benzo[b]thiophen-5-yl)difluoromethyl)phosphonic acid]
pIC50 [1]: 6.00 to 7.00 | pIC50 [2]: 5.52 to 6.52

COc1cccc(N(C)C(=O)[C@@H]2CC[C@@H]3CCN(C(C)=O)C[C@H](NC(=O)c4cc5cc(C(F)(F)P(=O)(O)O)ccc5[nH]4)C(=O)N32)c1 [Compound 165, ((2-(((5S,8S,10aR)-3-acetyl-8-((3-methoxyphenyl)(methyl)carbamoyl)-6-oxodecahydropyrrolo[1,2-a][1,5]diazocin-5-yl)carbamoyl)-1H-indol-5-yl)difluoromethyl)phosphonic acid]
pIC50 [1]: 5.00 to 6.00 | pIC50 [2]: 5.52 to 6.52

CCN1CC[C@H]2CC[C@@H](C(=O)N3C[C@@H](C#N)[C@H](c4ccccc4)C3)N2C(=O)[C@@H](NC(=O)c2ccc3ccc(C(F)(F)P(=O)(O)O)cc3c2)C1 (single isomer, unassigned) [Compound 243, ((7-(((5S,8S,10aR)-8-((3S,4R or 3R,4S)-3-cyano-4-phenylpyrrolidine-1-carbonyl)-3-ethyl-6-oxodecahydropyrrolo[1,2-a][1,5]diazocin-5-yl)carbamoyl)naphthalen-2-yl)difluoromethyl)phosphonic acid]
pIC50 [1]: 5.00 to 6.00 | pIC50 [2]: 5.52 to 6.52

CC(=O)N1CC[C@H]2CC[C@@H](C(=O)N3CCN(Cc4ccccc4)C(C#N)C3)N2C(=O)[C@@H](NC(=O)c2cc3cc(C(F)(F)P(=O)(O)O)ccc3s2)C1 (stereo partly drawn) [Compound 62, ((2-(((5S,8S,10aR)-3-acetyl-8-(4-benzyl-3-cyanopiperazine-1-carbonyl)-6-oxodecahydropyrrolo[1,2-a][1,5]diazocin-5-yl)carbamoyl)benzo[b]thiophen-5-yl)difluoromethyl)phosphonic acid]
pIC50 [1]: 5.00 to 6.00 | pIC50 [2]: 5.52 to 6.52

O=C(N[C@H]1CN(C(=O)c2noc3ccc(Cl)cc23)CC[C@H]2CC[C@@H](C(=O)N3CCOCC3)N2C1=O)c1ccc2ccc(C(F)P(=O)(O)O)cc2c1 (stereo partly drawn) [Compound 365, ((7-(((5S,8S,10aR)-3-(5-chlorobenzo[d]isoxazole-3-carbonyl)-8-(morpholine-4-carbonyl)-6-oxodecahydro-pyrrolo[1,2-a][1,5]diazocin-5-yl)carbamoyl)naphthalen-2-yl)fluoromethyl) phosphonic acid]
pIC50 [1]: < 5.00 | pIC50 [2]: ≥ 6.52

CC(=O)N1CC[C@H]2CC[C@@H](C(=O)Nc3cc(C)c4[nH]ncc4c3)N2C(=O)[C@@H](NC(=O)c2cc3cc(C(F)(F)P(=O)(O)O)ccc3s2)C1 [Compound 67, ((2-(((5S,8S,10aR)-3-acetyl-8-((7-methyl-1H-indazol-5-yl)carbamoyl)-6-oxodecahydropyrrolo[1,2-a][1,5]diazocin-5-yl)carbamoyl)benzo[b]thiophen-5-yl)difluoromethyl)phosphonic acid]
pIC50 [1]: 5.00 to 6.00 | pIC50 [2]: 5.52 to 6.52

((2-(((5S,8S,10aR)-8-((3S,4R or 3R,4S)-3-cyano-4-phenylpyrrolidine-1-carbonyl)-3-(2,2-difluoroethyl)-6-oxodecahydropyrrolo[1,2-a][1,5]diazocin-5-yl)carbamoyl)benzo[b]thiophen-5-yl)difluoromethyl)phosphonic acid [Compound 249]
pIC50 [1]: 6.00 to 7.00 | pIC50 [2]: ≥ 6.52

CCOc1ccc(N(C)C(=O)[C@@H]2CC[C@@H]3CCN(C(C)=O)C[C@H](NC(=O)c4cc5cc(C(F)(F)P(=O)(O)O)ccc5[nH]4)C(=O)N32)cc1 [Compound 101, ((2-(((5S,8S,10aR)-3-acetyl-8-((4-ethoxyphenyl)(methyl)carbamoyl)-6-oxodecahydropyrrolo[1,2-a][1,5]diazocin-5-yl)carbamoyl)-1H-indol-5-yl)difluoromethyl)phosphonic acid]
pIC50 [1]: 5.00 to 6.00 | pIC50 [2]: 5.52 to 6.52

CC(=O)N1CC[C@H]2CC[C@@H](C(=O)N(Cc3ccccc3)c3ccccc3)N2C(=O)[C@@H](NC(=O)c2cc3cc(C(F)(F)P(=O)(O)O)ccc3[nH]2)C1 [Compound 56, ((2-(((5S,8S,10aR)-3-acetyl-8-(benzyl(phenyl)carbamoyl)-6-oxodecahydropyrrolo[1,2-a][1,5]diazocin-5-yl)carbamoyl)-1H-indol-5-yl)difluoromethyl)phosphonic acid]
pIC50 [1]: 5.00 to 6.00 | pIC50 [2]: 5.52 to 6.52

CC(=O)N1CC[C@H]2CC[C@@H](C(=O)N3CCC(Oc4ccncc4)C3)N2C(=O)[C@@H](NC(=O)c2cc3cc(C(F)(F)P(=O)(O)O)ccc3s2)C1 (stereo partly drawn) [Compound 95, ((1-(((5S,8S,10aR)-3-acetyl-6-oxo-8-(3-(pyridin-4-yloxy)pyrrolidine-1-carbonyl)decahydropyrrolo[1,2-a][1,5]diazocin-5-yl)carbamoyl)benzo[b]thiophen-5-yl)difluoromethyl)phosphonic acid]
pIC50 [1]: 6.00 to 7.00 | pIC50 [2]: 5.52 to 6.52

CC(=O)Nc1ccn(C2CCN(C(=O)[C@@H]3CC[C@@H]4CCN(C(C)=O)C[C@H](NC(=O)c5cc6cc(C(F)(F)P(=O)(O)O)ccc6s5)C(=O)N43)C2)n1 (stereo partly drawn) [Compound 84, ((2-(((5S,8S,10aR)-8-(3-(3-acetamido-1H-pyrazol-1-yl)pyrrolidine-1-carbonyl)-3-acetyl-6-oxodecahydropyrrolo[1,2-a][1,5]diazocin-5-yl)carbamoyl)benzo[b]thiophen-5-yl)difluoromethyl)phosphonic acid]
pIC50 [1]: 6.00 to 7.00 | pIC50 [2]: 5.52 to 6.52

— patent US20250179103A1, “6-OXODECAHYDROPYRROLO[1,2-A][1,5]DIAZOCINE AND 6-OXODECAHYDRO-4H-PYRROLO[2,1-D][1,5]THIAZOCINE DERIVATIVES AS STAT3 AND STAT6 MODULATORS FOR THE TREATMENT OF CANCER AND INFLAMMATORY CONDITIONS” (Recludix Pharma, Inc., priority 2022, published 2025)
